Molecules are shown by their SMILES.

The target of this test is T1, human ALK5 (kinase domain, ALK5 T204D) (Homo sapiens, UniProt P36897, T204D).
T1 construct: The kinase domain of human ALK5 (amino acids 200-503); made in house; host or cells: insect cells (baculovirus)
T1 sequence (P36897 200-503 T204D): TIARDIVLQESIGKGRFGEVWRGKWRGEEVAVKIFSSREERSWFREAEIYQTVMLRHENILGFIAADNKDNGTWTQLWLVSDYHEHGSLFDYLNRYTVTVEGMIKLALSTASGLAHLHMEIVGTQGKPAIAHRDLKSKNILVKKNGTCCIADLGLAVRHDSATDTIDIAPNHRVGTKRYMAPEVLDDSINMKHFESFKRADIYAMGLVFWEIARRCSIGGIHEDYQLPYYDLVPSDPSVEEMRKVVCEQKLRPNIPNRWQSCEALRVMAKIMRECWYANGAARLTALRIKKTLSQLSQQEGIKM
Description: ALK5 kinase assay ([33P] phosphate incorporation into casein). Format: biochemical. The conditions noted are these: casein substrate, 1 μM unlabelled ATP. As to the method:
The kinase activity of ALK5 is assessed by measuring radiolabelled phosphate [33P] incorporation in to the generic substrate, casein. The kinase domain of human ALK5 (amino acids 200-503) is fused to an N-terminal histidine tag. The kinase activity of ALK5 is rendered constitutive via point mutation at amino acid 204 (threonine to aspartate modification, ALK5 T204D) and the kinase construct is engineered to be expressed from a baculovirus expression construct in insect cells. The purified, recombinantly-expressed histidine-tagged ALK5 T204D protein is dissolved at 5.4 mg/ml in 50 mM Tris-HCl pH 8.0, 150 mM NaCl, 5 mM DTT. ALK5 T204D is dissolved to 2.5 μg/ml in assay buffer (Assay buffer: 20 mM Tris-HCl pH 7.4, 10 mM MgCl2, 2 mM MnCl2) on the day of use.
Test compounds and reference compounds are dissolved in assay buffer without DTT containing 5% (v/v) DMSO. Stock solutions of test and reference compounds are diluted in assay buffer with DTT (1.25 mM) containing 4.5% (v/v) DMSO. 10 μl of test or reference compound are added to the appropriate wells of 96 well U-bottomed plate. Total enzyme activity is determined by measuring ALK5 T204D activity in the absence of ALK5 kinase inhibitor reference compounds. Non-specific binding (NSB) is determined by measuring the activity of ALK5 T204D in the presence of ALK5 kinase inhibitor reference compounds. 10 μl of dephosphorylated casein stock solution (dephosphorylated casein is dissolved in ddH2O at 20 mg/ml) is added per well (200 μg/well final assay concentration). 20 μl of ALK5 T204D (2.5 μg/ml solution) is added per well (50 ng/well final assay concentration). The plates are left to incubate at room temperature for 10 minutes.
10 μl of ATP mix is added to the well to initiate the reaction (0.66 nM [^33P]ATP/1 μM unlabelled ATP/well final assay concentration). The ATP mix is prepared as follows, unlabelled ATP (3 mM) is dissolved in ddH2O and pH adjusted to 7.4. The stock concentration of [^33P]ATP is 10 μCi/μl. The appropriate volume of [^33P]ATP is added to unlabelled ATP solution such that the final assay concentration per well is 0.1 μCi. Following addition of the ATP mix, the plates are incubated at room temperature for 50 minutes. The kinase reaction is terminated by the addition of 50 μL Stop Buffer (20 mM Tris-HCl pH 7.4, 10 mM EDTA).
75 μl/well from the reaction plate is transferred to a Multiscreen-IP plate (MultiScreen-IP plates are prepared by added 50 μL of 70% (v/v) ethanol per well and incubated for 5 minutes at room temperature. The ethanol is removed by aspiration via a MultiScreen HTS Vaccum Manifold unit (Millipore, Cat no: MSVMHT500). The plates are washed twice by adding 200 μl/well ddH2O). The MultiScreen-IP plate is incubated at room temperature for 30 minutes to allowing binding of casein to the plate. The MultiScreen-IP plates are washed three times by adding 200 μl/well 100 mM phosphoric acid solution and the gasket is carefully removed from the back of the MultiScreen-IP plate and the plate dried in the oven for 30 minutes. The MultiScreen-IP plate is backsealed, 50 μL of Microscint™20 is added, then the plates are topsealed and radiolabelled casein detected and quantified on a TopCount™ plate-reader using the ^33P scintillation protocol.
For the compound `Cc1cccc(-c2nc(-c3cncc(-c4ccc(CO)cc4)c3)c3cc[nH]c3n2)n1` [Example 70], the IC50 worked out at 13 nM.
Compound `COC(=O)CNCc1ccc(-c2cncc(-c3cc(-c4cccc(C)n4)nc4[nH]ccc34)c2)cc1` [Example 133, (4-{5-[6-(6-methyl-pyridin-2-yl)-1H-pyrrolo[2,3-b]pyridin-4-yl]-pyridin-3-yl}-benzylamino)-acetic acid methyl ester] returned an IC50 of 7 nM.
For `Cc1cccc(-c2cc(-c3cncc(-c4ccc(CN(C)CC(=O)O)cc4)c3)c3cc[nH]c3n2)n1` [Example 154, [Methyl-(4-{5-[6-(6-methyl-pyridin-2-yl)-1H-pyrrolo[2,3-b]pyridin-4-yl]-pyridin-3-yl}-benzyl)-amino]-acetic acid acid], half-maximal inhibition (IC50) was put at 6.4 nM.
On to `Cc1cccc(-c2nc(-c3cncc(C4=CCCCC4)c3)c3cc[nH]c3n2)n1` [Example 72, 4-(5-Cyclohex-1-enyl-pyridin-3-yl)-2-(6-methyl-pyridin-2-yl)-7H-pyrrolo[2,3-d]pyrimidine], for which the IC50 was 198 nM.
For `Cc1cccc(-c2cc(-c3cncc(-c4cccc(CN5CCN(C)CC5)c4)c3)c3cc[nH]c3n2)n1` [Example 63, 4-{5-[3-(4-Methyl-piperazin-1-ylmethyl)-phenyl]-pyridin-3-yl}-6-(6-methyl-pyridin-2-yl)-1H-pyrrolo[2,3-b]pyridine], the midpoint of inhibition, the IC50, lay at 12 nM.
On to `CCC(=O)Nc1cncc(-c2nc(-c3cccc(C)n3)nc3[nH]ccc23)c1` [Example 27, N-{5-[2-(6-Methyl-pyridin-2-yl)-7H-pyrrolo[2,3-d]pyrimidin-4-yl]-pyridin-3-yl}-propionamide], for which the half-maximal inhibitory concentration (IC50) came out at 723 nM.
Take `Cc1cccc(-c2nc(-c3cncc(-c4ccc(CN5CCOCC5)cc4)c3)c3cc[nH]c3n2)n1` [Example 69, 2-(6-Methyl-pyridin-2-yl)-4-[5-(4-morpholin-4-ylmethyl-phenyl)-pyridin-3-yl]-7H-pyrrolo[2,3-d]pyrimidine]: the IC50 was < 64 nM.
Turning to `Cc1cccc(-c2nc(-c3cncc(-c4cccc(CN(C)CCO)c4)c3)c3cc[nH]c3n2)n1` [Example 144, 2-[Methyl-(3-{5-[2-(6-methyl-pyridin-2-yl)-7H-pyrrolo[2,3-d]pyrimidin-4-yl]-pyridin-3-yl}-benzyl)-amino]-ethanol], the IC50 was determined as 19 nM.
Consider `Cc1cccc(-c2cc(-c3cncc4ccccc34)c3cc[nH]c3n2)n1` [Example 56, 4-[6-(6-Methyl-pyridin-2-yl)-1H-pyrrolo[2,3-b]pyridin-4-yl]-isoquinoline], for which the IC50 is < 70 nM.
In the case of `CNCc1cccc(-c2cncc(-c3cc(-c4cccc(C)n4)nc4[nH]ccc34)c2)c1` [Example 68, Methyl-(3-{5-[6-(6-methyl-pyridin-2-yl)-1H-pyrrolo[2,3-b]pyridin-4-yl]-pyridin-3-yl}-benzyl)-amine], the half-maximal inhibitory concentration (IC50) is < 32 nM.
As for `Cc1cccc(-c2nc(-c3cncc(C4=CCCC4)c3)c3cc[nH]c3n2)n1` [Example 74, 4-(5-Cyclopent-1-enyl-pyridin-3-yl)-2-(6-methyl-pyridin-2-yl)-7H-pyrrolo[2,3-d]pyrimidine], the figure is 163 nM.
`Cc1cccc(-c2nc(-c3cncc(-c4ccc(CN5CC[C@@H](N(C)C)C5)cc4)c3)c3cc[nH]c3n2)n1` [Example 97, Dimethyl-[(R)-1-(4-{5-[2-(6-methyl-pyridin-2-yl)-7H-pyrrolo[2,3-d]pyrimidin-4-yl]-pyridin-3-yl}-benzyl)-pyrrolidin-3-yl]-amine] gave a half-inhibitory concentration (IC50) of 8 nM.
As for `Cc1cccc(-c2nc(-c3cnc4ccccc4c3)c3cc[nH]c3n2)n1` [Example 28, 3-[2-(6-Methyl-pyridin-2-yl)-7H-pyrrolo[2,3-d]pyrimidin-4-yl]-quinoline], the figure is 184 nM.
As for `Cc1cccc(-c2nc(-c3cncc(C(=O)NCCCN(C)C)c3)c3cc[nH]c3n2)n1` [Example 13, N-(3-Dimethylamino-propyl)-5-[2-(6-methyl-pyridin-2-yl)-7H-pyrrolo[2,3-d]pyrimidin-4-yl]-nicotinamide], the figure is 177 nM.
Regarding `Cc1cccc(-c2nc(-c3cncc(-c4cccc(CN5CCOCC5)c4)c3)c3cc[nH]c3n2)n1` [Example 67, 2-(6-Methyl-pyridin-2-yl)-4-[5-(3-morpholin-4-ylmethyl-phenyl)-pyridin-3-yl]-7H-pyrrolo[2,3-d]pyrimidine], it took 24 nM to reach half-maximal inhibition (IC50).
With `Cc1cccc(-c2cc(-c3cncc(N)c3)c3cc[nH]c3n2)n1` [Example 106, 5-[6-(6-Methyl-pyridin-2-yl)-1H-pyrrolo[2,3-b]pyridin-4-yl]-pyridin-3-ylamine], 66 nM corresponded to half-maximal inhibition (IC50).
`Cc1cccc(-c2cc(-c3cncc(C4=CCNCC4)c3)c3cc[nH]c3n2)n1` [Example 111, 5-[6-(6-Methyl-pyridin-2-yl)-1H-pyrrolo[2,3-b]pyridin-4-yl]-1′,2′,3′,6′-tetrahydro-[3,4′]bipyridinyl] returned a 50% inhibitory concentration (IC50) of 42 nM.
In turn, `Cc1cccc(-c2cc(-c3cncc(-c4cccc(CN(C)CC(=O)O)c4)c3)c3cc[nH]c3n2)n1` [Example 143, [Methyl-(3-{5-[6-(6-methyl-pyridin-2-yl)-1H-pyrrolo[2,3-b]pyridin-4-yl]-pyridin-3-yl}-benzyl)-amino]-acetic acid] registered an IC50 of 30 nM.
Turning to `Cc1cccc(-c2nc(-c3cncc(-c4nnco4)c3)c3cc[nH]c3n2)n1` [Example 83, 2-(6-Methyl-pyridin-2-yl)-4-(5-[1,3,4]oxadiazol-2-yl-pyridin-3-yl)-7H-pyrrolo[2,3-d]pyrimidine], 557 nM corresponded to half-maximal inhibition (IC50).
As for `Cc1cccc(-c2cc(-c3cncc(-c4ccc(CNCCCO)cc4)c3)c3cc[nH]c3n2)n1` [Example 139, 3-(4-{5-[6-(6-Methyl-pyridin-2-yl)-1H-pyrrolo[2,3-b]pyridin-4-yl]-pyridin-3-yl}-benzylamino)-propan-1-ol], the figure is 9 nM.
The compound `CNCc1cncc(-c2cncc(-c3nc(-c4cccc(C)n4)nc4[nH]ccc34)c2)c1` [Example 76] yielded an IC50 of 117 nM.
As to `Cc1cccc(-c2nc(-c3cncc(-c4ccc(C5CNCCN5)cc4)c3)c3cc[nH]c3n2)n1` (centres unmarked) [Example 87, 2-(6-Methyl-pyridin-2-yl)-4-[5-(4-piperazin-2-yl-phenyl)-pyridin-3-yl]-7H-pyrrolo[2,3-d]pyrimidine], the concentration for half-maximal inhibition (IC50) was 10 nM.
`Cc1cccc(-c2nc(-c3cnccc3C)c3cc[nH]c3n2)n1` [Example 55, 4-(4-Methyl-pyridin-3-yl)-2-(6-methyl-pyridin-2-yl)-7H-pyrrolo[2,3-d]pyrimidine] returned an IC50 of 813 nM.
As for `CC(=O)N1CC=C(c2cncc(-c3nc(-c4cccc(C)n4)nc4[nH]ccc34)c2)CC1` [Example 103, 1-{5-[2-(6-Methyl-pyridin-2-yl)-7H-pyrrolo[2,3-d]pyrimidin-4-yl]-3′,6′-dihydro-2′H-[3,4′]bipyridinyl-1′-yl}-ethanone], the figure is 133 nM.
Compound `Cc1cccc(-c2nc(-c3cncc(-c4ccc(CN(C)C)cc4)c3)c3cc[nH]c3n2)n1` [Example 38, Dimethyl-(4-{5-[2-(6-methyl-pyridin-2-yl)-7H-pyrrolo[2,3-d]pyrimidin-4-yl]-pyridin-3-yl}-benzyl)-amine] came in with a 50% inhibitory concentration (IC50) of 12 nM.
Regarding `Cc1cccc(-c2cc(-c3cncc(-c4cccc(CN5CCOCC5)c4)c3)c3cc[nH]c3n2)n1` [Example 90, 6-(6-Methyl-pyridin-2-yl)-4-[5-(3-morpholin-4-ylmethyl-phenyl)-pyridin-3-yl]-1H-pyrrolo[2,3-b]pyridine], the IC50 is 66 nM.
